The values that follow come from ChEMBL document CHEMBL3046792, “Biologically active secondary metabolites of endophytic Pezicula species” (1995).

Molecules are shown by their SMILES.

Common to all, as to assay type: functional
For one assay, the system named is Medicago sativa. In words: Herbicidal activity against Medicago sativa (alfalfa) assessed as inhibition of seedlings growth after 5 days.
For a further assay, the system named is Lepidium sativum. Nature of the assay: Herbicidal activity against Lepidium sativum assessed as inhibition of seedlings growth after 2 days.
Assay [1] has as its system [Chlorella] fusca. In words: Antimicrobial activity against 'Chlorella' fusca at 1 mg by agar diffusion test. The conditions noted are these: Scenedesmus fuscus; read-out: IZ. On the technique in general: A growth-free zone around the sample is the usual read-out of agar diffusion tests.
Assay [2] deals with Mycotypha microspora. In words: Antimicrobial activity against Mycotypha microspora at 1 mg by agar diffusion test. The conditions noted are these: read-out: IZ.
The subject of assay [3] is Microbotryum violaceum. Nature of the assay: Antimicrobial activity against Microbotryum violaceum at 1 mg by agar diffusion test. Conditions: read-out: IZ.
The subject of assay [4] is Priestia megaterium. Nature of the assay: Antimicrobial activity against Bacillus megaterium at 1 mg by agar diffusion test. Conditions: read-out: IZ.
Assay [5] relates to Escherichia coli. Nature of the assay: Antimicrobial activity against Escherichia coli at 1 mg by agar diffusion test. Conditions: read-out: IZ.
The subject of assay [6] is Aspergillus pseudoglaucus. In words: Antimicrobial activity against Eurotium repens at 1 mg by agar diffusion test. The conditions noted are these: read-out: IZ.
The test system of assay [7] is [Chlorella] fusca. In words: Antimicrobial activity against 'Chlorella' fusca at 0.9 mg by agar diffusion test. The conditions noted are these: Scenedesmus fuscus; read-out: IZ.
Assay [8] relates to Aspergillus pseudoglaucus. In words: Antimicrobial activity against Eurotium repens at 0.9 mg by agar diffusion test. Conditions: read-out: IZ.
Assay [9] deals with Mycotypha microspora. Nature of the assay: Antimicrobial activity against Mycotypha microspora at 0.9 mg by agar diffusion test. The conditions noted are these: read-out: IZ.
The subject of assay [10] is Microbotryum violaceum. In words: Antimicrobial activity against Microbotryum violaceum at 0.9 mg by agar diffusion test. Conditions: read-out: IZ.
Assay [11] deals with Escherichia coli. In words: Antimicrobial activity against Escherichia coli at 0.9 mg by agar diffusion test. Conditions: read-out: IZ.
Assay [12] concerns Priestia megaterium. In words: Antimicrobial activity against Bacillus megaterium at 0.9 mg by agar diffusion test. Conditions: read-out: IZ.
The subject of assay [13] is [Chlorella] fusca. Nature of the assay: Antimicrobial activity against 'Chlorella' fusca at 1.2 mg by agar diffusion test. Conditions: Scenedesmus fuscus; read-out: IZ.
Assay [14] concerns Aspergillus pseudoglaucus. In words: Antimicrobial activity against Eurotium repens at 1.2 mg by agar diffusion test. The conditions noted are these: read-out: IZ.
For assay [15], the system named is Mycotypha microspora. In words: Antimicrobial activity against Mycotypha microspora at 1.2 mg by agar diffusion test. Conditions: read-out: IZ.
Assay [16] relates to Microbotryum violaceum. In words: Antimicrobial activity against Microbotryum violaceum at 1.2 mg by agar diffusion test. Conditions: read-out: IZ.
For assay [17], the system named is Escherichia coli. Nature of the assay: Antimicrobial activity against Escherichia coli at 1.2 mg by agar diffusion test. Conditions: read-out: IZ.
Assay [18] deals with Priestia megaterium. In words: Antimicrobial activity against Bacillus megaterium at 1.2 mg by agar diffusion test. Conditions: read-out: IZ.

For `C=C1C(=O)O[C@H]2C(=O)O[C@H](CC)[C@@H]12` [4-EPI-ETHIOSOLIDE], the “growth inhibition (GI)” value in the assay on Medicago sativa and in the assay with Lepidium sativum was 100% throughout. Also, the zone of inhibition at 1000 µg/disc in assay [Chlorella] fusca [1] came out at 3 mm; in the assay on Mycotypha microspora [2] it was 6 mm; in the assay with Microbotryum violaceum [3], 10 mm; with Priestia megaterium [4], 5 mm; in the assay on Escherichia coli [5], 5 mm.

With `C/C=C/C1=C(Cl)C(=O)[C@@H](Cl)[C@@]1(O)C(=O)OC` [(+)-CRYPTOSPORIPSIN], the “growth inhibition (GI)” value in the assay with Medicago sativa and with Lepidium sativum was 100% each time. Also, the zone of inhibition at 1000 µg/disc in [6] was 16 mm; in assay [Chlorella] fusca [1], 0 mm; in the assay with Mycotypha microspora [2], 17 mm; with Microbotryum violaceum [3], 15 mm; with Priestia megaterium [4], 5 mm; in the assay with Escherichia coli [5], 3 mm.

Regarding `C[C@@H]1Cc2cccc(O)c2C(=O)O1` [(-)-(R)-MELLEIN], the “growth inhibition (GI)” value with Medicago sativa and in the assay with Lepidium sativum was 100% in each case. For the same molecule, the zone of inhibition at 900 µg/disc in assay [Chlorella] fusca [7] turned out to be 14 mm; in assay [8], 6 mm; in the assay on Mycotypha microspora [9], 0 mm; in the assay on Microbotryum violaceum [10], 8 mm; with Escherichia coli [11], 2 mm; with Priestia megaterium [12] it was 2 mm.

On to `C/C=C(\Cl)C1=CC(=O)[C@@]23C[C@@H]2C(C)(C)O[C@@]3(O)C1=O` [(-)-MYCORRHIZIN A], for which the “growth inhibition (GI)” value in the assay with Medicago sativa and in the assay with Lepidium sativum was 100% in each case. Besides, the zone of inhibition at 1200 µg/disc was 3 mm in assay [Chlorella] fusca [13]; 14 mm in [14]; 10 mm in the assay with Mycotypha microspora [15]; 14 mm with Microbotryum violaceum [16]; 3 mm in the assay with Escherichia coli [17]; 8 mm in the assay with Priestia megaterium [18].
